{
  "source": "ChEMBL document CHEMBL1201862",
  "about": "“PubChem BioAssay data set” (2004)",
  "assay_in_all_cases": "DTP human tumour cell line panel, 48 h",
  "key": {"[1]": {"tested_on": "ACHN"}, "[2]": {"tested_on": "OVCAR-5"}, "[3]": {"tested_on": "M19-MEL"}, "[4]": {"tested_on": "DLD-1"}, "[5]": {"tested_on": "SK-MEL-28"}, "[6]": {"tested_on": "M14"}, "[7]": {"tested_on": "CCRF-CEM"}, "[8]": {"tested_on": "SNB-78"}, "[9]": {"tested_on": "UACC-62"}, "[10]": {"tested_on": "RPMI-8226"}, "[11]": {"tested_on": "HT-29"}, "[12]": {"tested_on": "UACC-257"}, "[13]": {"tested_on": "OVCAR-3"}, "[14]": {"tested_on": "OVCAR-8"}, "[15]": {"tested_on": "SF-539"}, "[16]": {"tested_on": "DMS-273"}, "[17]": {"tested_on": "SK-MEL-2"}, "[18]": {"tested_on": "CAKI-1"}, "[19]": {"tested_on": "KM-20L2"}, "[20]": {"tested_on": "NCI-H460"}, "[21]": {"tested_on": "RXF 393"}, "[22]": {"tested_on": "HOP-18"}, "[23]": {"tested_on": "K562"}, "[24]": {"tested_on": "Malme-3M"}, "[25]": {"tested_on": "SN12C"}, "[26]": {"tested_on": "NCI-H522"}, "[27]": {"tested_on": "MOLT-4"}, "[28]": {"tested_on": "TK-10"}, "[29]": {"tested_on": "SW-620"}, "[30]": {"tested_on": "A549"}, "[31]": {"tested_on": "LOX IMVI"}, "[32]": {"tested_on": "SNB-19"}, "[33]": {"tested_on": "COLO 205"}, "[34]": {"tested_on": "HL-60"}, "[35]": {"tested_on": "HOP-62"}, "[36]": {"tested_on": "SF-268"}, "[37]": {"tested_on": "NCI-H23"}, "[38]": {"tested_on": "UO-31"}, "[39]": {"tested_on": "HCT-116"}, "[40]": {"tested_on": "HOP-92"}, "[41]": {"tested_on": "DMS-114"}, "[42]": {"tested_on": "KM12"}, "[43]": {"tested_on": "LXFL 529"}, "[44]": {"tested_on": "IGROV-1"}, "[45]": {"tested_on": "HCT-15"}, "[46]": {"tested_on": "NCI-H226"}, "[47]": {"tested_on": "SK-OV-3"}, "[48]": {"tested_on": "SK-MEL-5"}, "[49]": {"tested_on": "U-251"}, "[50]": {"tested_on": "SF-295"}, "[51]": {"tested_on": "SR"}, "[52]": {"tested_on": "OVCAR-4"}, "[53]": {"tested_on": "SNB-75"}, "[54]": {"tested_on": "786-0"}},
  "note": "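Assay format: 96-well plates, 48-hour exposure. GI50: concentration for 50% inhibition of growth.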 Activity calls are given as the source filed them. No stated cut-off is given here; in the data, active = GI50 up to about 1.1 µM and inactive = higher.",
  "data": [
    {"smiles": "O=C(c1ccco1)N(C(=S)N1CCN(c2ccccn2)CC1)C1CCCCC1", "values": [
      {"measurement": "GI50", "setting": "[1]", "result": "> 100 µM (inactive)"},
      {"measurement": "GI50", "setting": "[2]", "result": "> 100 µM (inactive)"},
      {"measurement": "GI50", "setting": "[3]", "result": "> 100 µM (inactive)"},
      {"measurement": "GI50", "setting": "[4]", "result": "> 100 µM (inactive)"},
      {"measurement": "GI50", "setting": "[5]", "result": "> 100 µM (inactive)"},
      {"measurement": "GI50", "setting": "[6]", "result": "> 100 µM (inactive)"},
      {"measurement": "GI50", "setting": "[7]", "result": "> 100 µM (inactive)"},
      {"measurement": "GI50", "setting": "[8]", "result": "> 100 µM (inactive)"},
      {"measurement": "GI50", "setting": "[9]", "result": "> 100 µM (inactive)"},
      {"measurement": "GI50", "setting": "[10]", "result": "> 100 µM (inactive)"},
      {"measurement": "GI50", "setting": "[11]", "result": "> 100 µM (inactive)"},
      {"measurement": "GI50", "setting": "[12]", "result": "> 100 µM (inactive)"},
      {"measurement": "GI50", "setting": "[13]", "result": "> 100 µM (inactive)"},
      {"measurement": "GI50", "setting": "[14]", "result": "> 100 µM (inactive)"},
      {"measurement": "GI50", "setting": "[15]", "result": "> 100 µM (inactive)"},
      {"measurement": "GI50", "setting": "[16]", "result": "> 100 µM (inactive)"},
      {"measurement": "GI50", "setting": "[17]", "result": "> 100 µM (inactive)"},
      {"measurement": "GI50", "setting": "[18]", "result": "> 100 µM (inactive)"},
      {"measurement": "GI50", "setting": "[19]", "result": "> 100 µM (inactive)"},
      {"measurement": "GI50", "setting": "[20]", "result": "> 100 µM (inactive)"},
      {"measurement": "GI50", "setting": "[21]", "result": "> 100 µM (inactive)"},
      {"measurement": "GI50", "setting": "[22]", "result": "> 100 µM (inactive)"},
      {"measurement": "GI50", "setting": "[23]", "result": "> 100 µM (inactive)"},
      {"measurement": "GI50", "setting": "[24]", "result": "> 100 µM (inactive)"},
      {"measurement": "GI50", "setting": "[25]", "result": "> 100 µM (inactive)"},
      {"measurement": "GI50", "setting": "[26]", "result": "> 100 µM (inactive)"},
      {"measurement": "GI50", "setting": "[27]", "result": "83.4 µM (inactive)"},
      {"measurement": "GI50", "setting": "[28]", "result": "> 100 µM (inactive)"},
      {"measurement": "GI50", "setting": "[29]", "result": "> 100 µM (inactive)"},
      {"measurement": "GI50", "setting": "[30]", "result": "> 100 µM (inactive)"},
      {"measurement": "GI50", "setting": "[31]", "result": "> 100 µM (inactive)"},
      {"measurement": "GI50", "setting": "[32]", "result": "> 100 µM (inactive)"},
      {"measurement": "GI50", "setting": "[33]", "result": "> 100 µM (inactive)"},
      {"measurement": "GI50", "setting": "[34]", "result": "> 100 µM (inactive)"},
      {"measurement": "GI50", "setting": "[35]", "result": "> 100 µM (inactive)"},
      {"measurement": "GI50", "setting": "[36]", "result": "> 100 µM (inactive)"},
      {"measurement": "GI50", "setting": "[37]", "result": "> 100 µM (inactive)"},
      {"measurement": "GI50", "setting": "[38]", "result": "83.4 µM (inactive)"},
      {"measurement": "GI50", "setting": "[39]", "result": "> 100 µM (inactive)"},
      {"measurement": "GI50", "setting": "[40]", "result": "> 100 µM (inactive)"},
      {"measurement": "GI50", "setting": "[41]", "result": "77.3 µM (inactive)"},
      {"measurement": "GI50", "setting": "[42]", "result": "> 100 µM (inactive)"},
      {"measurement": "GI50", "setting": "[43]", "result": "> 100 µM (inactive)"},
      {"measurement": "GI50", "setting": "[44]", "result": "> 100 µM (inactive)"},
      {"measurement": "GI50", "setting": "[45]", "result": "> 100", "unit": "µM"},
      {"measurement": "GI50", "setting": "[46]", "result": "> 100 µM (inactive)"},
      {"measurement": "GI50", "setting": "[47]", "result": "> 100 µM (inactive)"},
      {"measurement": "GI50", "setting": "[48]", "result": "> 100 µM (inactive)"},
      {"measurement": "GI50", "setting": "[49]", "result": "> 100 µM (inactive)"},
      {"measurement": "GI50", "setting": "[50]", "result": "> 100 µM (inactive)"},
      {"measurement": "GI50", "setting": "[51]", "result": "> 100 µM (inactive)"},
      {"measurement": "GI50", "setting": "[52]", "result": "> 100 µM (inactive)"},
      {"measurement": "GI50", "setting": "[53]", "result": "> 100 µM (inactive)"},
      {"measurement": "GI50", "setting": "[54]", "result": "> 100 µM (inactive)"}
    ]}
  ]
}
